Experimental data as given in ChEMBL document CHEMBL6071133, “Discovery of novel penetrating peptides able to target human leukemia and lymphoma for enhanced PROTAC delivery” (Eur J Med Chem, 2024).
Active and inactive are the calls of the source. The calls are words filed in the database; no cut-off is given here.

Key:
[1] = Drug uptake in human K562 cells assessed as membrane penetration by measuring increase in fluorescence intensity at 5 umol/L incubated for 2 hrs by flow cytometry relative to C9C; format: ADME, cell-based; details: k562, 2 h, 5 µM, dose 5 µmol/L
[2] = Drug uptake in human KU812 cells assessed as membrane penetration by measuring increase in fluorescence intensity at 5 umol/L incubated for 2 hrs by flow cytometry relative to C9C; format: ADME, cell-based; details: ku812, 2 h, 5 µM, dose 5 µmol/L
[3] = Drug uptake in human K562 cells assessed as membrane permeability by measuring increase in fluorescence intensity at 5 umol/L incubated for 2 hrs by flow cytometry relative to THP-1 cells; format: ADME, cell-based; details: k562, 2 h, 5 µM, dose 5 µmol/L
[4] = Drug uptake in human KU812 cells assessed as membrane permeability by measuring increase in fluorescence intensity at 5 umol/L incubated for 2 hrs by flow cytometry relative to THP-1 cells; format: ADME, cell-based; details: ku812, 2 h, 5 µM, dose 5 µmol/L
[5] = Drug uptake in human K562 cells assessed as increase in fluorescence intensity at 1 to 10 uM incubated for 2 hrs by flow cytometry; format: ADME, cell-based; details: k562, 2 h, dose 1-10 µM
[6] = Drug uptake in human KU812 cells assessed as increase in fluorescence intensity at 1 to 10 uM incubated for 2 hrs by flow cytometry; format: ADME, cell-based; details: ku812, 2 h, dose 1-10 µM
[7] = Drug uptake in human CCRF-CEM cells assessed as increase in fluorescence intensity at 1 to 10 uM incubated for 2 hrs by flow cytometry; format: ADME, cell-based; details: dose 1-10 µM
[8] = Drug uptake in human K562 cells assessed as increase in fluorescence intensity at 5 umol/L measured for 5 to 240 mins by flow cytometry; format: ADME, cell-based; details: k562, 5 µM, TDE = time-dependent effect, time 5-240 min, dose 5 µmol/L
[9] = Drug uptake in human CCRF-CEM cells assessed as increase in fluorescence intensity at 5 umol/L measured for 5 to 240 mins by flow cytometry; format: ADME, cell-based; details: 5 µM, TDE = time-dependent effect, time 5-240 min, dose 5 µmol/L
[10] = Drug uptake in human K562 cells assessed as increase in fluorescence intensity at 1 to 10 umol/L incubated for 2 hrs by cell imaging based fluorescence microscopic analysis; format: ADME; details: k562, 2 h, dose 1-10 µmol/L
[11] = Drug uptake in human KU812 cells assessed as increase in fluorescence intensity at 1 to 10 umol/L incubated for 2 hrs by cell imaging based fluorescence microscopic analysis; format: ADME; details: ku812, 2 h, dose 1-10 µmol/L
[12] = Drug uptake in human CCRF-CEM cells assessed as increase in fluorescence intensity at 1 to 10 umol/L incubated for 2 hrs by cell imaging based fluorescence microscopic analysis; format: ADME; details: dose 1-10 µmol/L
[13] = Drug uptake in human THP-1 cells assessed as increase in fluorescence intensity at 10 umol/L incubated for 2 hrs by cell imaging based fluorescence microscopic analysis; format: ADME; details: thp-1, 2 h, 10 µM, dose 10 µmol/L
[14] = Drug uptake in human K562 cells assessed as perinuclear distribution and colocalization with nucleus at 10 umol/L incubated for 2 hrs by confocal laser microscopy; format: ADME, cell-based; details: k562, 2 h, 10 µM, dose 10 µmol/L
[15] = Drug uptake in human KU812 cells assessed as perinuclear distribution and colocalization with nucleus at 10 umol/L incubated for 2 hrs by confocal laser microscopy; format: ADME, cell-based; details: ku812, 2 h, 10 µM, dose 10 µmol/L
[16] = Drug uptake in human K562 cells assessed as fluorescence intensity at 5 umol/L pretreated with endocytosis inhibitor, chloroquine for 0.5 hrs followed by incubation with compound for 2 hrs by FACS analysis; format: ADME, cell-based; details: k562, 2 h, 5 µM, dose 5 µmol/L
[17] = Drug uptake in human K562 cells assessed as fluorescence intensity at 5 umol/L pretreated with endocytosis inhibitor, chlorpromazine for 0.5 hrs followed by incubation with compound for 2 hrs by FACS analysis; format: ADME, cell-based; details: k562, 2 h, 5 µM, dose 5 µmol/L
[18] = Stability of the compound in fetal bovine serum assessed as parent compound remaining measured after 8 hrs by HPLC-MS analysis; format: ADME, cell-free, Bos taurus; details: cattle, read-out: Stability
[19] = Stability of the compound in fetal bovine serum assessed as parent compound remaining measured after 36 hrs by HPLC-MS analysis; format: ADME, cell-free, Bos taurus; details: cattle, read-out: Stability
K562 [20] = test: Potentiation of IMA-PROTAC-induced cytotoxicity against human K562 cells assessed as inhibition of cell growth at compound: IMA-PROTAC concentration ratio of 5:1 incubated for 48 hrs in presence of 3 umo/L IMA-PROTAC by MTT assay; format: functional, cell-based
[21] = Cytotoxicity against human K562 cells assessed as cell viability at 0.01 to 100 uM incubated for 48 hrs by MTT assay; format: toxicity, cell-based; details: dose 0.01-100 µM, read-out: Activity
[22] = Cytotoxicity against human KU812 cells assessed as cell viability at 0.01 to 100 uM incubated for 48 hrs by MTT assay; format: toxicity, cell-based; details: dose 0.01-100 µM, read-out: Activity
[23] = Cytotoxicity against human CCRF-CEM cells assessed as cell viability at 0.01 to 100 uM incubated for 48 hrs by MTT assay; format: toxicity, cell-based; details: dose 0.01-100 µM, read-out: Activity
K562 [24] = test: Increase in membrane permeability of IMA-PROTAC in human K562 cells assessed as potentiation of IMA-PROTAC-induced Bcr-Abl degradation at PROTAC to compound concentration ratio of 1:5 pretreated with proteasome inhibitor, MG132 and carfilzomib followed by incubation with compound for 48 hrs in presence of 3 umol/L IMA-PROTAC by western blot analysis; format: functional, cell-based
K562 [25] = test: Increase in membrane permeability of IMA-PROTAC in human K562 cells assessed as potentiation of IMA-PROTAC-induced Bcr-Abl degradation at PROTAC to compound concentration ratio of 1:3 incubated for 48 hrs in presence of 3 umol/L IMA-PROTAC by western blot analysis; format: functional, cell-based
K562 [26] = test: Induction of apoptosis in human K562 cells assessed as viable cells at PROTAC to compound concentration ratio of 1:5 incubated for 48 hrs in presence of 3 umol/L IMA-PROTAC by AnnexinV-FITC/PI staining based flow cytometry (reference value: 99.85%); format: functional
K562 [27] = test: Induction of apoptosis in human K562 cells assessed as late apoptotic cells at PROTAC to compound concentration ratio of 1:5 incubated for 48 hrs in presence of 3 umol/L IMA-PROTAC by AnnexinV-FITC/PI staining based flow cytometry (reference value: 0.01%); format: functional
K562 [28] = test: Induction of cell cycle arrest in human K562 cells assessed as accumulation of cells at G2/M phase at PROTAC to compound concentration ratio of 1:5 incubated for 48 hrs in presence of 3 umol/L IMA-PROTAC by propidium iodide staining based flow cytometry; format: functional
[29] = Interaction with IMA-PROTAC assessed as induction of assembly formation by transmission electron microscopy; format: physicochemical
[30] = Increase in membrane permeation of IMA-PROTAC in human K562 cells assessed as increase in intracellular content of IMA-PROTAC incubated for 3 hrs by HPLC-MRM-MS analysis relative to control; format: functional
K562 [31] = test: Increase in membrane permeability of IMA-PROTAC in human K562 cells assessed as potentiation of IMA-PROTAC-induced inhibition of STAT5 phosphorylation at PROTAC to compound concentration ratio of 1:3 incubated for 48 hrs in presence of 3 umol/L IMA-PROTAC by western blot analysis; format: functional, cell-based

fold change (FC) [1]: 4.03 | fold change (FC) [2]: 4.45 | fold change (FC) [3]: 8.8 | fold change (FC) [4]: 4 | Drug uptake [5]: Dose-Dependent Effect | Drug uptake [6]: Dose-Dependent Effect | Drug uptake [7]: Dose-Dependent Effect | Drug uptake [8]: Tde | Drug uptake [9]: Tde | Drug uptake [10]: Active | Drug uptake [11]: Active | Drug uptake [12]: Active | Drug uptake [13]: Active | Drug uptake [14]: Active | Drug uptake [15]: Active | Drug uptake [16]: Not Active | Drug uptake [17]: Not Active | remaining at 8 h [18]: 100% | remaining at 36 h [19]: 55% | Activity [29]: Not Active
Compound: CC(C)C[C@H](NC(=O)[C@H](Cc1csc2ccccc12)NC(=O)[C@@H](Cc1ccccc1)NC(=O)[C@H](Cc1ccccc1)NC(=O)CNC(=O)[C@@H](N)CS)C(=O)N[C@@H](CCCNC(=N)N)C(=O)N[C@@H](CO)C(=O)N[C@@H](CS)C(=O)O
Activity (K562 [20]): inactive | viability at 48 h, up to 100 µM [21]: > 75% | viability at 48 h, up to 100 µM [22]: > 75% | viability at 48 h, up to 100 µM [23]: > 75% | Activity (K562 [24]): inactive | Activity (K562 [25]): Active | Activity (K562 [26]): 63.19% | Activity (K562 [27]): 13.98% | Activity (K562 [28]): Active | fold change (FC) [30]: 1.72 | Activity (K562 [31]): Active
